Measured values reported in PMC10497752, “Heparins are potent inhibitors of ectonucleotide pyrophosphatase/phospho-diesterase-1 (NPP1) – a promising target for the immunotherapy of cancer” (Frontiers in Immunology, 2023).

Assays:
[1] = molecular target: T1, human NPP5 (Homo sapiens, UniProt Q9UJA9); experiment: NPP5 colorimetric assay, p-Nph-5'-TMP as substrate; format: biochemical; details: 20 µg/mL (12 µM)
T1 sequence (Q9UJA9 25-477): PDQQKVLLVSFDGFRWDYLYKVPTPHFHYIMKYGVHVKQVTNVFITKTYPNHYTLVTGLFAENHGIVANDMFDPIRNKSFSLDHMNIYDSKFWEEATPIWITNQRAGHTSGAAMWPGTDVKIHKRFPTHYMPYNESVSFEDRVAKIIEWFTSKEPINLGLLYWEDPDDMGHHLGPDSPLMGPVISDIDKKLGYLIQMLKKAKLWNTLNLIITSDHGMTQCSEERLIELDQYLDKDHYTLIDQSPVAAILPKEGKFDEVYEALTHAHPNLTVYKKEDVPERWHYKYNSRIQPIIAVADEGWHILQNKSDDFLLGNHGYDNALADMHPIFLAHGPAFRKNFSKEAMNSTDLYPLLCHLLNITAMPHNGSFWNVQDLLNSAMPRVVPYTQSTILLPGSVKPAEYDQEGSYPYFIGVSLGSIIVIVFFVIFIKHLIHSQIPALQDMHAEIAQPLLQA
Description: Compounds 1, 2, 5, 6, and 7 were screened at different concentrations using 400 μM of p-nitrophenyl thymidine monophosphate (p-Nph-5´-TMP) as substrate to study potential inhibition of NPP3 and NPP5 using a colorimetric assay as previously described ([21]). Soluble and purified human NPP3, prepared as previously described ([22]), and human NPP5 ([23]) were diluted in the assay buffer (50 mM TRIS HCl, 2 mM CaCl2, and 0.2 mM ZnCl2, pH 9.00), and 0.09 µg of NPP3, or 0.4 µg of NPP5 were employed. The mixtures were incubated for 30 min at 37°C in case of NPP3, and for 100 min at 37°C in case of NPP5, and the reactions were subsequently terminated by adding 20 μL of 1.0 N aq. NaOH solution. The assay is based on the enzymatic ester hydrolysis of p-Nph-5’-TMP which results in the formation of the yellow p-nitrophenolate anion. The absorption was measured at 400 nm using a BMG PheraStar FS plate reader (BMG Labtech GmbH, Ortenberg, Germany). Each analysis was repeated three times with triplicate measurements.

[2] = test system: U87 human glioblastoma cells; experiment: U87 cell-based assay, extracellular adenosine formation from ATP (CE-UV); details: U-87 MG, 300 µM ATP, 3 h, DP and EHNA, 10 µg/mL (~ 6 µM)
Description: U87 human glioblastoma cells were grown in cell culture flasks until reaching a fully covered confluent cell layer. Cells were cultivated at 37°C and 5% CO2 in DMEM with additions of 10% FCS, 1% penicillin/streptomycin and 1% L-glutamine. The cells were rinsed with phosphate-buffered saline (PBS) and detached with EDTA. Thereafter, they were counted by a Cell Counter CASY® 1 Model TT (Schärfe System GmbH, Reutlingen, Germany) to retrieve the number of viable cells, and washed three times with PBS before they were resuspended in Krebs-HEPES buffer at a concentration of 10^6 cells/mL ([37]). Then, 1 mL of cell suspension was transferred into a 24-well plate. The cells were pretreated with the nucleoside transport inhibitor dipyridamole (20 µM) for 30 min ([38]). Adenosine deaminase (ADA) activity was inhibited by the addition of 1 µM of the inhibitor EHNA (erythro-9-amino-β-hexyl-α-methyl-9H-purine-9-ethanol hydrochloride) ([39]). Heparins, their non-anticoagulative analogs, and the known ectonucleotidase inhibitor PSB-POM-141 ([20]) were added. The samples were incubated with 300 µM of ATP for 3 h at 37°C and 5% CO2. […]
The percentage of inhibition of adenosine format ion in U87 cell supernatants by heparin derivatives was calculated from the conversion rate as follows: […]

Question: Which results are given for `CO[C@H]1O[C@H](COS(=O)(=O)O)[C@@H](O[C@@H]2O[C@@H](C(=O)O)[C@@H](O[C@H]3O[C@H](COS(=O)(=O)O)[C@@H](O[C@@H]4O[C@H](C(=O)O)[C@@H](O[C@H]5O[C@H](COS(=O)(=O)O)[C@@H](O)[C@H](O)[C@H]5NS(=O)(=O)O)[C@H](O)[C@H]4O)[C@H](OS(=O)(=O)O)[C@H]3NS(=O)(=O)O)[C@H](O)[C@H]2OS(=O)(=O)O)[C@H](O)[C@H]1NS(=O)(=O)O` [Compound 6, Fondaparinux]?
Answer: NPP5 inhibition, selectivity study [1]: no effect; inhibition at 10 µg/mL [2]: 60%
